Assays:
[1] = system: alpha-1 adrenergic receptor; conditions: Chenard et al., 1991; cited from earlier work
[2] = system: intraplantar carrageenan-induced paw withdrawal latency; experiment: intraplantar carrageenan-induced paw withdrawal latency in the rat; type: in vivo
Procedure: More particularly, FIG. 1 is a graph showing the effect of (−) threo-ifenprodil when given intranasally or intraperitoneally at 10 and 30 mg/kg on the % change of pressure-induced paw withdrawal latency on the intraplantar carrageenan administered paw in the rat (250 g).
FIG. 2 is a graph showing the effect of (−) threo-ifenprodil when given intravenously at 0.1 to 3 mg/kg on the % change of pressure-induced paw withdrawal latency on the intraplantar carrageenan administered paw in the rat.

SMILES: CC(C(O)c1ccc(O)cc1)N1CCC(Cc2ccccc2)CC1 (centres unmarked) [Ifenprodil, 2-(4-benzylpiperidino)-1-(4-hydroxyphenyl)-1-propanol]
- alpha-1 adrenergic receptor binding properties [1]: potent

SMILES: CC(C(O)c1ccc(O)cc1)N1CCC(Cc2ccccc2)CC1 (single isomer, unassigned; (-)) [(−) Threo-ifenprodil]
- efficacy on pressure-induced paw withdrawal latency ([2]; intravenous, 0.1, 0.3, 1 and 3 mg/kg, FIG. 2): excellent efficacy

SMILES: CC(C(O)c1ccc(O)cc1)N1CCC(Cc2ccccc2)CC1 (racemic) [erythro racemate of ifenprodil]
- intranasal route compared with intraperitoneal route ([2]; FIG. 1): at least equivalent if not superior to the intraperitoneal route
- analgesic effect on pressure-induced paw withdrawal latency ([2]; intranasal, 2.5 mg/rat and 7.5 mg/rat, FIG. 1): markedly analgesic
- analgesic effect on pressure-induced paw withdrawal latency ([2]; intraperitoneal, 10 mg/kg and 30 mg/kg, FIG. 1): markedly analgesic
